Tested on: Colo205 colon cancer xenograft
Test: Colo205 colon cancer xenograft model, tumor growth inhibition and delay
Format: in vivo, Female athymic nude mice
Details: LBH589 30 mg/kg iv Mon/Wed/Fri for 3 weeks, 5-FU 75 mg/kg ip once a week for 3 weeks, or both
Experimental: Female athymic nude mice-were implanted subcutaneously with Col6205 colon cancer cells. When tumors reached a medan tumor volume of 220 mm3, mice were randomized into groups of 10 mice. Mice were treated with LBH589 at 30 mg/kg intravenously on Monday, Wednesday, Friday per week for 3 weeks, 75 mg/kg of 5-Fluorouracil intraperitoneally once a week for 3 weeks, or combination of the two agents. For tumor growth inhibition (FIG. 2A), compound activity was measured as the percent change in tumor volume of treated animals over control animals (% T/C). The percentage of regression was determined as the percent change in the final tumor volume at the end of the study over the starting tumor volume. For tumor growth delay (FIG. 2B), compound activity was measured as the change in median calculated time to the study end point (TTE), which was predefined as tumor volume of 1000 mm^3.

O=c1[nH]cc(F)c(=O)[nH]1 [5-FU, 5-Fluorouracil, reference compound]
tumor growth inhibition (TGI) and tumor growth delay (TGD): led to tumor growth inhibition (TGI) and tumor growth delay (TGD) | Median TTE (time to study end point, tumor volume of 1000 mm^3) (vehicle 39.5 days): 44.5 days

Source: patent US20100137398A1, “USE OF HDAC INHIBITORS FOR THE TREATMENT OF GASTROINTESTINAL CANCERS” (NOVARTIS AG, priority 2007, published 2010)
